“Also recorded” adds a separate entry of the source.
How the values were obtained:
[1] = target: T1, PPARγ ligand binding domain (204–477) (Homo sapiens, UniProt P37231); assay: Surface plasmon resonance (SPR) analysis of fatty acid binding to immobilized PPARγ LBD; settings: for Rmax: SPR steady-state fit, FUA: chip coupled with 12000RU; for Kd: steady-state fit, Biacore T200, chip about 6500 RU (FUA: chip coupled with 12000RU PPARγ LBD); for binding to PPARγ in SPR (in words): compared with DHA and EPA
T1 construct: GST (N, cleaved yes); made in house; host or cells: E. coli BL21(DE3)
T1 sequence (P37231 204-477 isoform P37231-2): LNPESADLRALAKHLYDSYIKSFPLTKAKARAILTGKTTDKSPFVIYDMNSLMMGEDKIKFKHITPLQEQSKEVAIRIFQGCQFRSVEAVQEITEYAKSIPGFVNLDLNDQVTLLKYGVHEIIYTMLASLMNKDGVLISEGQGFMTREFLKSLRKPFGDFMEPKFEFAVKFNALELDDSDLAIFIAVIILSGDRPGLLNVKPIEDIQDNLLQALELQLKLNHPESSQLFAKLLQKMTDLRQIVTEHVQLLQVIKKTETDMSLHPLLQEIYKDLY
Description: The protein was firstly purified using a glutathione Sephararose 4B column, followed by PreScission protease cleavage to remove the GST-tag. […] The finally collected protein in 20 mM Tirs, pH8.0, 150 mM NaCl and 2 mM DTT was concentrated to 20 mg/ml. The purity was checked by SDS-PAGE and protein was stored at − 80 °C for use.
PPARγ (0.05 mg/ml) were coupled onto CM5 sensor chips according to amine coupling procedure from the manufacturer’s manual. […] A reference channel was generated at same conditions without protein injection and used as a blank control to correct the instrument or buffer artifacts. Fatty acids were dissolved in DMSO and diluted with concentration ranging from 0.78 to 50 μM, and injected at a flowrate of 40 μL/min. Each sensorgram consists of an association phase (120 s), indicating the binding of the injected compound to the protein, followed by a dissociation phase (300 s) during which the running buffer (10 mM phosphate buffer, 150 mM NaCl, 5% DMSO, 0.05% Tween 20, pH 7.4) is passed over and the bound compounds were eluted from the chip surface. The Kd was calculated by steady-state binding fitting method in Biacore T200 evaluate the software.

PPARα = system: PPARα; parameters: method as in ToxCast database released in October 2015; settings: active/inactive call; ref ToxCast database released in October 2015; cited from earlier work
AR = system: AR; parameters: method as in ToxCast database released in October 2015; settings: active/inactive call; ref ToxCast database released in October 2015; cited from earlier work
GR = system: GR; parameters: method as in ToxCast database released in October 2015; settings: active/inactive call; ref ToxCast database released in October 2015; cited from earlier work
RORγ = system: RORγ; parameters: method as in ToxCast database released in October 2015; settings: active/inactive call; ref ToxCast database released in October 2015; cited from earlier work
PR = system: PR; parameters: method as in ToxCast database released in October 2015; settings: active/inactive call; ref ToxCast database released in October 2015; cited from earlier work

Compound: CC/C=C\C/C=C\C/C=C\C/C=C\C/C=C\CCCC(=O)O [EPA, Eicosapentaenoic acid, reference compound]
- Rmax [1]: 136 RU
- Kd [1]: 629 µM

Compound: CN1CCc2cccc3c2[C@H]1Cc1ccc(O)c(O)c1-3 [apomorphine, reference compound]
- ToxCast activity against PPARα (PPARα): active

Compound: CCCCCCC1CC1CCCCCCCCCC(=O)O (centres unmarked) [PTA, Phytomonic acid]
- Rmax [1]: 33.28 RU
- binding to PPARγ in SPR (in words) [1]: stronger binding than DHA and EPA
- Kd [1]: 103 µM

Compound: O=C(c1ccc(O)cc1O)c1ccc(O)cc1O [tetrahydroxybenzophenone]
- ToxCast activity against AR (AR): active

Compound: CCCc1cc(C)c(CCCCCCCCCCC(=O)O)o1 [FUA, 11-(3-methyl-5-propylfuran-2-yl)undecanoic acid]
- Rmax [1]: 459.3 RU
- binding to PPARγ in SPR (in words) [1]: stronger binding than DHA and EPA
- Kd [1]: 249 µM

Compound: CC1(C)CCC(=Cc2ccc(Cl)cc2)C1(O)Cn1cncn1 (centres unmarked) [triconazole]
- ToxCast activity against AR (AR): active

Compound: CC(C)[C@H](C(=O)O[C@H](C#N)c1cccc(Oc2ccccc2)c1)c1ccc(Cl)cc1 [Esfenvalerate]
- ToxCast activity against GR (GR): active

Compound: CC/C=C\C/C=C\C/C=C\C/C=C\C/C=C\C/C=C\CCC(=O)O [DHA, Docosahexaenoic acid, reference compound]
- Rmax [1]: 281 RU

Compound: CCCCCC[C@@H](O)C/C=C\CCCCCCCC(=O)O [ROA, ricinoleic acid]
- Rmax [1]: > 10,000.00 RU
- binding to PPARγ in SPR (in words) [1]: weaker binding than DHA
- Kd [1]: > 10000 µM

Compound: eicosatrienoic acid [ESA]
- Rmax [1]: > 10,000.00 RU
- binding to PPARγ in SPR (in words) [1]: weaker binding than DHA
- Kd [1]: > 10000 µM

Compound: CC(C)c1cccc(C(C)C)c1N1C(=O)c2ccc(O)cc2C1=O [5HPP-33]
- ToxCast activity against RORγ (RORγ): active

Compound: O=C(O)CN(CC(=O)O)CC(=O)O [Nitrilotriacetic acid]
- ToxCast activity against AR (AR): active

Compound: CC1(C)NC(=O)N(c2ccc([N+](=O)[O-])c(C(F)(F)F)c2)C1=O [Nilutamide]
- ToxCast activity against PR (PR): active

Compound: Cl.N=C1C=CC(=C(c2ccc(N)cc2)c2ccc(N)cc2)C=C1 [parafuchsin]
- ToxCast activity against RORγ (RORγ): active

Compound: CCCCCc1cc(C)c(CCCCCCCCC(=O)O)o1 [FNA, 10,13-epoxy-11-methyloctadeca-10,12-dienoic acid]
- Rmax [1]: 38.55 RU
- binding to PPARγ in SPR (in words) [1]: stronger binding than DHA and EPA
- Kd [1]: 136 µM

Compound: Oc1ccc(/C=C/c2cc(O)cc(O)c2)cc1 [reservertol]
- ToxCast activity against RORγ (RORγ): active

Compound: CC/C=C\C/C=C\C/C=C\C/C=C\C/C=C\CCCCCC(=O)O [DPA, docosapentaenoic acid]
- Rmax [1]: 2167 RU
- binding to PPARγ in SPR (in words) [1]: weaker binding than DHA; also recorded: confirmed to bind to PPARγ, weaker than DHA and EPA
- Kd [1]: 3960 µM

Compound: O=c1c(O)c(-c2ccc(O)cc2O)oc2cc(O)cc(O)c12 [morin]
- ToxCast activity against PPARα (PPARα): active

Compound: CCOC(=O)C(C)OC(=O)c1cc(Oc2ccc(C(F)(F)F)cc2Cl)ccc1[N+](=O)[O-] (centres unmarked) [lactofen]
- ToxCast activity against AR (AR): active

Reference: article PMC7811525, “Virtual screening of potentially endocrine-disrupting chemicals against nuclear receptors and its application to identify PPARγ-bound fatty acids” (Archives of Toxicology, 2020)
